According to US8207176B2 (Glaxo Group Limited, priority 2005, dated 2012):
Structures can show the parent of a compound that is named as a salt.

System: influx of neutrophils to the lung in LPS-challenged rats
Assay: Rat LPS neutrophilia model
Assay type: in vivo
Conditions: intratracheal, LPS aerosol 100 ug/ml 15 min, lavage 4 hours later, in at least one of the range of conditions tested, significant p<0.05, nonsignificant p>0.05
Description: The effect of compounds on the influx of neutrophils to the lung in LPS-challenged rats is evaluated as follows. The test compound is suspended in one of the following solutions: 0.5% tween 80/PBS, 0.5% tween 80/saline, 10% EtOH/saline (with pH adjusted to 2.0, or 8.0 with HCl, or unadjusted), Saline @ pH 2.0, 6.5 or 8.0, 0.5% Tragacanth, 1% DMSO/20% Encapsin/Saline, or acidified 5% Tragacanth. The suspension process may be aided by the use of a glass homogenizer. For intratracheal administration, the animals are anesthetized with inhaled isoflurane and placed in a supine position, the trachea is intubated with a steel gavage needle (1.5 inch, 22 gauge, small ball) or a Penn-Century Microsprayer Aerosolizer (model IA-IB) and 200 ul of dosing solution is delivered. The animals are visually monitored during the recovery process, which typically occurs within two minutes. It is noted that the test compounds may be alternatively administered via the microsprayer in a dry powder blend with a suitable excipient, such as lactose.
Rats treated with compound or vehicle (15 min-24 hours pretreatment) are exposed to an LPS aerosol (100 ug/ml) for 15 min. Four hours later the rats are euthanized with pentobarbital (100 mg/kg, i.p.) and the airways are lavaged with 5 washes of 5 ml of phosphate buffered saline. The harvested cells are stained (Diffquick) and counted to determine total and differential cell data. […] Inhibition of neutrophil levels relative to no compound controls is calculated based on the differential counts.
The data is obtained as % inhibition using a particular concentration and pretreat time.

| SMILES | inhibition of neutrophilia (neutrophil levels in lung lavage relative to no compound controls) |
| --- | --- |
| CCCNC(=O)c1ccc(C)c(-c2nc(N3CCC(N4CCC(C)CC4)CC3)nc3c2ccc(=O)n3-c2c(F)cccc2F)c1 [Example 166, 3-[8-(2,6-difluorophenyl)-2-(4-methyl-1,4′-bipiperidin-1′-yl)-7-oxo-7,8-dihydropyrido[2,3-d]pyrimidin-4-yl]-4-methyl-N-propylbenzamide] | statistically significant inhibition |
| CCN(CC)CCCNc1nc(-c2cc(C(=O)Nc3ccccc3)ccc2C)c2ccc(=O)n(-c3c(F)cccc3F)c2n1 [Example 147, 3-[2-{[3-(diethylamino)propyl]amino}-8-(2,6-difluorophenyl)-7-oxo-7,8-dihydropyrido[2,3-d]pyrimidin-4-yl]-4-methyl-N-phenylbenzamide] | statistically nonsignificant inhibition |
| CNCCNc1nc(-c2cc(C(=O)NCCc3ccccc3)ccc2C)c2ccc(=O)n(-c3c(F)cccc3F)c2n1 [Example 29, 3-(8-(2,6-difluorophenyl)-2-{[2-(methylamino)ethyl]amino}-7-oxo-7,8-dihydropyrido[2,3-d]pyrimidin-4-yl)-4-methyl-N-(2-phenylethyl)benzamide] | statistically significant inhibition |
| CCN(CC)CCCNc1nc(-c2cc(C(=O)NC)ccc2C)c2ccc(=O)n(-c3c(F)cccc3F)c2n1 [Example 119, 3-[2-{[3-(diethylamino)propyl]amino}-8-(2,6-difluorophenyl)-7-oxo-7,8-dihydropyrido[2,3-d]pyrimidin-4-yl]-N,4-dimethylbenzamide] | statistically significant inhibition |
| Cc1ccc(C(=O)NCC2CC2)cc1-c1nc(N2CCC(N)CC2)nc2c1ccc(=O)n2-c1c(F)cccc1F [Example 27, 3-[2-(4-amino-1-piperidinyl)-8-(2,6-difluorophenyl)-7-oxo-7,8-dihydropyrido[2,3-d]pyrimidin-4-yl]-N-(cyclopropylmethyl)-4-methylbenzamide] | statistically significant inhibition |
| Cc1ccc(C(=O)NC2CCCC2)cc1-c1nc(N2CCC(N)CC2)nc2c1ccc(=O)n2-c1c(F)cccc1F [Example 70, 3-[2-(4-amino-1-piperidinyl)-8-(2,6-difluorophenyl)-7-oxo-7,8-dihydropyrido[2,3-d]pyrimidin-4-yl]-N-cyclopentyl-4-methylbenzamide] | statistically nonsignificant inhibition |
| CCN(CC)CCCNc1nc(-c2cc(C(=O)NCCF)ccc2C)c2ccc(=O)n(-c3c(F)cccc3F)c2n1 [Example 133, 3-[2-{[3-(diethylamino)propyl]amino}-8-(2,6-difluorophenyl)-7-oxo-7,8-dihydropyrido[2,3-d]pyrimidin-4-yl]-N-(2-fluoroethyl)-4-methylbenzamidetrifluoroacetate] | statistically significant inhibition |
| CNCCNc1nc(-c2cc(C(=O)NCC3CC3)ccc2C)c2ccc(=O)n(-c3c(F)cccc3F)c2n1 [Example 4] | statistically significant inhibition |
| Cc1ccc(C(=O)NC2CC2)cc1-c1nc(NCc2ncc[nH]2)nc2c1ccc(=O)n2-c1c(F)cccc1F [Example 23, N-cyclopropyl-3-{8-(2,6-difluorophenyl)-2-[(1H-imidazol-2-ylmethyl)amino]-7-oxo-7,8-dihydropyrido[2,3-d]pyrimidin-4-yl}-4-methylbenzamide] | statistically nonsignificant inhibition |
| CCN(CC)CCCNc1nc(-c2cc(C(=O)NCC3CCCCC3)ccc2C)c2ccc(=O)n(-c3c(F)cccc3F)c2n1 [Example 135, N-(cyclohexylmethyl)-3-[2-{[3-(diethylamino)propyl]amino}-8-(2,6-difluorophenyl)-7-oxo-7,8-dihydropyrido[2,3-d]pyrimidin-4-yl]-4-methylbenzamidetrifluoroacetate] | inactive |
| Cc1ccc(C(=O)NCC(C)C)cc1-c1nc(N2CCC(N3CCC(C)CC3)CC2)nc2c1ccc(=O)n2-c1c(F)cccc1F [Example 168, 3-[8-(2,6-difluorophenyl)-2-(4-methyl-1,4′-bipiperidin-1′-yl)-7-oxo-7,8-dihydropyrido[2,3-d]pyrimidin-4-yl]-4-methyl-N-(2-methylpropyl)benzamide] | inactive |
| Cc1ccc(NC(=O)c2cccc3cc[nH]c23)cc1-c1nc(NC(CO)CO)nc2c1ccc(=O)n2-c1c(F)cccc1F [Example 44, N-[3-(8-(2,6-difluorophenyl)-2-{[2-hydroxy-1-(hydroxymethyl)ethyl]amino}-7-oxo-7,8-dihydropyrido[2,3-d]pyrimidin-4-yl)-4-methylphenyl]-1H-indole-7-carboxamide trifluoroacetate] | statistically significant inhibition |
| Cc1ccc(C(=O)Nc2ccc(F)cc2)cc1-c1nc(N2CCC(N)CC2)nc2c1ccc(=O)n2-c1c(F)cccc1F [Example 72] | statistically significant inhibition |
| Cc1ccc(C(=O)Nc2ccc(F)cc2)cc1-c1nc(NCCN(C)C(=O)OC(C)(C)C)nc2c1ccc(=O)n2-c1c(F)cccc1F [Example 95, 1,1-dimethylethyl (2-{[8-(2,6-difluorophenyl)-4-(5-{[(4-fluorophenyl)amino]carbonyl}-2-methylphenyl)-7-oxo-7,8-dihydropyrido[2,3-d]pyrimidin-2-yl]amino}ethyl)methylcarbamate] | statistically nonsignificant inhibition |
| CCN(CC)CCCNc1nc(-c2cc(C(=O)NC3CC3)cc(F)c2C)c2ccc(=O)n(-c3c(F)cccc3F)c2n1 [Example 185, N-cyclopropyl-3-[2-{[3-(diethylamino)propyl]amino}-8-(2,6-difluorophenyl)-7-oxo-7,8-dihydropyrido[2,3-d]-pyrimidin-4-yl]-5-fluoro-4-methylbenzamide] | statistically nonsignificant inhibition |
| CNCCNc1nc(-c2cc(C(=O)Nc3ccc(F)cc3)ccc2C)c2ccc(=O)n(-c3c(F)cccc3F)c2n1 [Example 60, 3-(8-(2,6-difluorophenyl)-2-{[2-(methylamino)ethyl]amino}-7-oxo-7,8-dihydropyrido[2,3-d]pyrimidin-4-yl)-N-(4-fluorophenyl)-4-methylbenzamide] | statistically significant inhibition |
| Cc1ccc(C(=O)NC2CCCC2)cc1-c1nc(NCc2ncc[nH]2)nc2c1ccc(=O)n2-c1c(F)cccc1F [Example 76, N-cyclopentyl-3-{8-(2,6-difluorophenyl)-2-[(1H-imidazol-2-ylmethyl)amino]-7-oxo-7,8-dihydropyrido[2,3-d]pyrimidin-4-yl}-4-methylbenzamide] | statistically nonsignificant inhibition |
| CCN(CC)CCCNc1nc(-c2cc(C(=O)N[C@H](C)C(C)C)ccc2C)c2ccc(=O)n(-c3c(F)cccc3F)c2n1 [Example 130] | statistically nonsignificant inhibition |
| CCN(CC)CCCNc1nc(-c2cc(C(=O)N[C@@H](C)c3ccccc3)ccc2C)c2ccc(=O)n(-c3c(F)cccc3F)c2n1 [Example 149, 3-[2-{[3-(diethylamino)propyl]amino}-8-(2,6-difluorophenyl)-7-oxo-7,8-dihydropyrido[2,3-d]pyrimidin-4-yl]-4-methyl-N-[(1S)-1-phenylethyl]benzamide] | inactive |
| Cc1ccc(C(=O)NCCc2ccccc2)cc1-c1nc(NC2CC(C)(C)NC(C)(C)C2)nc2c1ccc(=O)n2-c1c(F)cccc1F [Example 28, 3-{8-(2,6-difluorophenyl)-7-oxo-2-[(2,2,6,6-tetramethyl-4-piperidinyl)amino]-7,8-dihydropyrido[2,3-d]pyrimidin-4-yl}-4-methyl-N-(2-phenylethyl)benzamide] | statistically nonsignificant inhibition |
| Cc1ccc(C(=O)NCc2ccccc2)cc1-c1nc(N2CCC(N)CC2)nc2c1ccc(=O)n2-c1c(F)cccc1F [Example 71, 3-[2-(4-amino-1-piperidinyl)-8-(2,6-difluorophenyl)-7-oxo-7,8-dihydropyrido[2,3-d]pyrimidin-4-yl]-4-methyl-N-(phenylmethyl)benzamide] | statistically nonsignificant inhibition |
| CNCCNc1nc(-c2cc(C(=O)NCc3ccccc3)ccc2C)c2ccc(=O)n(-c3c(F)cccc3F)c2n1 [Example 59, 3-(8-(2,6-difluorophenyl)-2-{[2-(methylamino)ethyl]amino}-7-oxo-7,8-dihydropyrido[2,3-d]pyrimidin-4-yl)-4-methyl-N-(phenylmethyl)benzamide] | statistically significant inhibition |
